The results in this text go back to ChEMBL document CHEMBL3272043, “Isoxazole anthelmintics” (1977).

The structures appear in SMILES notation. Calls of active or inactive are those of the source. The calls are words filed in the database; no cut-off is given here.

The first assay has as its system Nippostrongylus brasiliensis. In words: Anthelmintic activity against Nippostrongylus brasiliensisin in parasitized albino rat assessed as dose required to 75 % clearance at 500 mg/kg, po relative to untreated control. Format: functional, organism-based. The arrangement: dose 500 mg/kg.
Details: not given
With `c1ccc(CSc2cc(-c3ccccc3)no2)cc1`, the result was inactive.

With `CS(=O)(=O)Oc1cc(-c2ccccc2)on1`, the result was inactive.

On to `CNC(=O)Nc1cc(-c2ccccc2)on1`, for which the result was inactive.

`FC(F)(F)c1cc(-c2ccccc2)on1`: the outcome was inactive.

As to `O=[N+]([O-])c1cc(-c2cc(Cl)no2)ccc1Cl`, the result was inactive.

For the compound `Cc1ccc(C(=O)CC[N+](=O)[O-])cc1`, the result was inactive.

In the case of `O=C(CC[N+](=O)[O-])c1ccc(Cl)cc1`, the outcome was inactive.

As for `Nc1noc(-c2ccccc2)c1Cl`, the result was inactive.

As for `O=C(CC[N+](=O)[O-])c1ccccc1`, the outcome was inactive.

For the compound `CS(=O)(=O)c1cc(-c2ccccc2)no1`, the outcome was inactive.

`O=C(CC[N+](=O)[O-])c1ccc(Cl)c(Cl)c1`: the result was inactive.

Consider `c1ccc(-c2ccon2)cc1`, for which the outcome was inactive.

In the case of `CSc1onc(-c2ccccc2)c1Cl`, the result was inactive.

With `Clc1onc(-c2ccccc2)c1Cl`, the outcome was inactive.

As for `COc1onc(-c2ccccc2)c1Cl`, the result was inactive.

`O=C(CC[N+](=O)[O-])c1cccs1`: the outcome was inactive.

Regarding `C[S+]([O-])c1cc(-c2ccccc2)no1` (stereo not drawn), the outcome was inactive.

Consider `C=CCc1c(-c2ccccc2)noc1Cl`, for which the outcome was inactive.

For `CCSCCOc1cc(-c2ccccc2)no1`, the outcome was inactive.

Consider `Nc1noc(-c2ccccc2)c1Br`, for which the outcome was inactive.

As for `Clc1ccc(-c2ccno2)cc1`, the result was inactive.

For `COC(=O)Nc1cc(-c2ccccc2)on1`, the result was inactive.

On to `FC(F)(F)c1cc(-c2ccccc2)no1`, for which the result was inactive.

On to `O=C(Nc1noc(-c2ccccc2)c1Cl)C(F)(F)F`, for which the result was inactive.

As for `Oc1cc(-c2ccc(Cl)cc2)on1`, the result was inactive.

For the compound `O=[N+]([O-])c1ccc(-c2cc(Cl)no2)cc1`, the result was inactive.

Take `O=C(Nc1cc(-c2ccccc2)on1)C(F)(F)F`: the result was inactive.

Turning to `Nc1cc(-c2ccccc2)on1`, the result was inactive.

Turning to `O=C(CC[N+](=O)[O-])c1ccc(Cl)cc1Cl`, the outcome was inactive.

The subject of a further assay is Nippostrongylus brasiliensis. In words: Anthelmintic activity against Nippostrongylus brasiliensisin in parasitized po dosed albino rat assessed as dose required to 75 % clearance relative to untreated control. Format: functional. To be noted: read-out: MED.
As to `Brc1cc(-c2ccccc2)no1`, the minimal effective dose was determined as 16 mg/kg.

Take `CCSc1cc(-c2ccccc2)no1`: the minimal effective dose turned out to be 125 mg/kg.

As to `COc1cc(-c2ccccc2)no1`, the minimal effective dose came out at 31 mg/kg.

For `CN(C)c1cc(-c2ccccc2)no1`, the minimal effective dose stood at 125 mg/kg.

As for `CCOc1cc(-c2ccccc2)no1`, the minimal effective dose worked out at 31 mg/kg.

Regarding `Cc1ccc(-c2cc(Cl)no2)cc1`, the minimal effective dose is 500 mg/kg.

As to `Clc1ccc(-c2cc(Br)no2)cc1`, the minimal effective dose was found to be 250 mg/kg.

For the compound `CSc1cc(-c2ccccc2)no1`, the minimal effective dose came to 31 mg/kg.

As for `Ic1cc(-c2ccccc2)on1`, the minimal effective dose was 250 mg/kg.

As for `Clc1cc(-c2ccccc2)no1`, the minimal effective dose was found to be 16 mg/kg.

In the case of `Clc1noc(-c2ccccc2)c1Cl`, the minimal effective dose came to 31 mg/kg.

For the compound `Clc1cc(-c2ccc(Cl)c(Cl)c2)on1`, the minimal effective dose stood at 250 mg/kg.

Take `Clc1cc(-c2ccccc2)on1`: the minimal effective dose amounted to 31 mg/kg.

`C=CCCCOc1cc(-c2ccccc2)no1`: the minimal effective dose was 125 mg/kg.

For `Clc1cc(-c2cccs2)on1`, the minimal effective dose came to 250 mg/kg.

With `Brc1cc(-c2ccccc2)on1`, the minimal effective dose is 31 mg/kg.

Take `Clc1ccc(-c2cc(Cl)no2)c(Cl)c1`: the minimal effective dose amounted to 62 mg/kg.

Take `Clc1ccc(-c2cc(Cl)no2)cc1`: the minimal effective dose is 62 mg/kg.

Take `c1ccc(-c2cc(N3CCOCC3)on2)cc1`: the minimal effective dose was determined as 500 mg/kg.
